Experimental data reported in PubChem BioAssay AID2060490 (Molecular Pharmacology Branch, DTP, NCI, 2025).

Test system: 885512-296-R-J2-PDC complex spheroid viability
Experiment: Anticancer human tumor 885512-296-R-J2-PDC patient-derived breast carcinoma cell line growth inhibition [GQUAD]
Conditions: for IC50: curve of first compound; for viability, T/C: stronger effect = lower value
Source text: DNA G-quadruplex Stabilizer Agents in Combinations in Complex Spheroids
A high-throughput screen of multi-cell type tumor spheroids was designed to identify active combinations of DNA G-quadruplex stabilizer agents and targeted small molecules. Complex spheroids include a stromal component modeled by human endothelial cells (HUVEC) and fibroblasts modeled by human mesenchymal stem cells (MSCs). The concentration ranges selected for each drug and investigational agent were based upon clinically achievable concentrations if the clinical Cmax of the agent was known.
Compounds. The drugs and investigational agents: pidnarulex (CX-5461; NSC782164), APTO-253 (NSC789042), BRACO-19 (NSC847499), peposertib (NSC802822), ceralasertib (NSC780249), elimusertib (NSC800525), camonsertib (NSC841442), AZD-1390 (NSC803789), olaparib (NSC753686), talazoparib (NSC767125), ART-558 (NSC835418), sotorasib (NSC818433), MRTX-1133 (NSC836407), SN-38 (NSC673596), topotecan (NSC609699), etoposide (NSC141540), doxorubicin (NSC123127), gemcitabine (NSC613327), 5-fluorouracil (NSC19893), paclitaxel (NSC125973), vemurafenib (NSC761431), panobinostat (NSC761190), R-306465 (JNJ-16241199; NSC773264), adavosertib (NSC754352), TP-3654 (NSC805149), carboplatin (NSC241240), KSQ-4279 (NSC840948), and staurosporine (NSC755774) were obtained from the National Cancer Institute (NCI) Developmental Therapeutics Program Chemical Repository (34). The FDA-approved anticancer drug set is available from the NCI Developmental Therapeutics Program. […] The stock solutions were prepared in dimethyl sulfoxide (DMSO, Sigma-Aldrich, St. Louis, MO, cat. D2650) at 800-fold the tested concentration and stored at -70 degrees C prior to their use. All drugs and investigational agents were tested over a range starting from a high concentration at or near the clinical Cmax and decreasing in half-log increments. If the clinical Cmax for an agent had not been determined, the highest concentration tested was 10 microM.
2.3 Cell Culture. All cells were maintained in an incubator at 37 degrees C and 5% CO2 with 95% humidity. The PDC lines were cultured according to standard operating procedures established by the NCI PDMR. All PDCs were thawed and cultured in Matrigel-coated flasks prepared with a working solution of 1X Ham's F-12 nutrient mix, without supplementation (Invitrogen, cat. 11765054), 100 U/mL penicillin-streptomycin (Invitrogen, cat. 15140122), and 2.5% Matrigel (Corning Inc., cat. 354248) for the first three passages. The 857933-349-R-J2-PDC line was cultured in 6C/Colon 1B media, which includes advanced DMEM/F-12 (Thermo Fisher Scientific, cat. 12634028), 10 mM HEPES (Thermo Fisher Scientific, cat. 15630080), 1X GlutaMAX supplement (Thermo Fisher Scientific, cat. 35050061), 0.1 mg/mL primocin (InvivoGen, cat. ant-pm-2), 10% defined fetal bovine serum, heat inactivated (HyClone Laboratories Inc., cat. SH30070.03HI), 50% L-WRN conditioned media (ATCC, cat. CRL-3276), 1.25 mM N-Acetyl-L-cysteine (Sigma-Aldrich, cat. A9165), 10 mM nicotinamide (Sigma-Aldrich, cat. N0636), 1X B-27 supplement (Thermo Fisher Scientific, cat. 17504044), 1X N-2 supplement (Thermo Fisher Scientific, cat. 17502048), 10 microM Y-27632 dihydrochloride (Tocris Bioscience, cat. 1254), and 50 ng/mL human EGF recombinant protein (Thermo Fisher Scientific, cat. PHG0311). The 485176-168-R4-J1-PDC line was cultured in Panc media, which includes all 6C/Colon 1B media components plus 100 ng/mL human FGF-10 (Thermo Fisher Scientific, cat. 100-26), 500 nM SB-431542 (Selleckchem, cat. S1067), and gastrin (Tocris, cat. 3006).
[…]

[1] = second compound 0.0316 µM, first compound 0.0316 µM
[2] = second compound 0.0316 µM, first compound 0.1 µM
[3] = second compound 0.0316 µM, first compound 0.316 µM
[4] = second compound 0.0316 µM, first compound 1 µM
[5] = second compound 0.0316 µM, first compound 3.16 µM
[6] = second compound 0.0316 µM, first compound 10 µM
[7] = second compound 0.1 µM, first compound 0.0316 µM
[8] = second compound 0.1 µM, first compound 0.1 µM
[9] = second compound 0.1 µM, first compound 0.316 µM
[10] = second compound 0.1 µM, first compound 1 µM
[11] = second compound 0.1 µM, first compound 3.16 µM
[12] = second compound 0.1 µM, first compound 10 µM
[13] = second compound 0.316 µM, first compound 0.0316 µM
[14] = second compound 0.316 µM, first compound 0.1 µM
[15] = second compound 0.316 µM, first compound 0.316 µM
[16] = second compound 0.316 µM, first compound 1 µM
[17] = second compound 0.316 µM, first compound 3.16 µM
[18] = second compound 0.316 µM, first compound 10 µM
[19] = second compound 1 µM, first compound 0.0316 µM
[20] = second compound 1 µM, first compound 0.1 µM
[21] = second compound 1 µM, first compound 0.316 µM
[22] = second compound 1 µM, first compound 1 µM
[23] = second compound 1 µM, first compound 3.16 µM
[24] = second compound 1 µM, first compound 10 µM
[25] = second compound 3.16 µM, first compound 0.0316 µM
[26] = second compound 3.16 µM, first compound 0.1 µM
[27] = second compound 3.16 µM, first compound 0.316 µM
[28] = second compound 3.16 µM, first compound 1 µM
[29] = second compound 3.16 µM, first compound 3.16 µM
[30] = second compound 3.16 µM, first compound 10 µM
[31] = second compound 10 µM, first compound 0.0316 µM
[32] = second compound 10 µM, first compound 0.1 µM
[33] = second compound 10 µM, first compound 0.316 µM
[34] = second compound 10 µM, first compound 1 µM
[35] = second compound 10 µM, first compound 3.16 µM
[36] = second compound 10 µM, first compound 10 µM
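Note: spheroids exposed to the compounds for one week.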
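Throughout, for viability, T/C: percent of tumor spheroid viability relative to DMSO vehicle control wells.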

## C#Cc1c(F)ccc2cc(O)cc(-c3ncc4c(N5CC6CCC(C5)N6)nc(OCC56CCCN5CC(F)C6)nc4c3F)c12 (centres undefined) + Cc1[nH]c2ccc(F)cc2c1-c1nc2c3cccnc3c3ncccc3c2[nH]1
Second compound 0.0316 µM
  IC50: 1.6 µM
Second compound 0.1 µM
  IC50: 1.45 µM
Second compound 0.316 µM
  IC50: 1.45 µM
Second compound 1 µM
  IC50: 0.393 µM
Second compound 3.16 µM
  IC50: < 0.0316 µM
Second compound 10 µM
  IC50: < 0.0316 µM
[1]
  viability, T/C: 109%
[2]
  viability, T/C: 92.7%
[3]
  viability, T/C: 94.5%
[4]
  viability, T/C: 73.4%
[5]
  viability, T/C: 13.6%
[6]
  viability, T/C: 18.1%
[7]
  viability, T/C: 103%
[8]
  viability, T/C: 90.8%
[9]
  viability, T/C: 95%
[10]
  viability, T/C: 67.7%
[11]
  viability, T/C: 8.04%
[12]
  viability, T/C: 17.1%
[13]
  viability, T/C: 88.6%
[14]
  viability, T/C: 87.4%
[15]
  viability, T/C: 82.3%
[16]
  viability, T/C: 67.5%
[17]
  viability, T/C: 10.2%
[18]
  viability, T/C: 16.4%
[19]
  viability, T/C: 52.9%
[20]
  viability, T/C: 52.9%
[21]
  viability, T/C: 54.3%
[22]
  viability, T/C: 35.6%
[23]
  viability, T/C: 1.25%
[24]
  viability, T/C: 1.01%
[25]
  viability, T/C: 2.98%
[26]
  viability, T/C: 2.55%
[27]
  viability, T/C: 4.13%
[28]
  viability, T/C: 1.7%
[29]
  viability, T/C: 0.26%
[30]
  viability, T/C: 0.33%
[31]
  viability, T/C: 1.35%
[32]
  viability, T/C: 1.38%
[33]
  viability, T/C: 1.82%
[34]
  viability, T/C: 1.42%
[35]
  viability, T/C: 0.24%
[36]
  viability, T/C: 0.41%

## C=CCn1c(=O)c2cnc(Nc3ccc(N4CCN(C)CC4)cc3)nc2n1-c1cccc(C(C)(C)O)n1 + Cc1[nH]c2ccc(F)cc2c1-c1nc2c3cccnc3c3ncccc3c2[nH]1
Second compound 0.0316 µM
  IC50: 6.58 µM
Second compound 0.1 µM
  IC50: 6.68 µM
Second compound 0.316 µM
  IC50: 6.26 µM
Second compound 1 µM
  IC50: 1.46 µM
Second compound 3.16 µM
  IC50: < 0.0316 µM
Second compound 10 µM
  IC50: < 0.0316 µM
[1]
  viability, T/C: 128%
[2]
  viability, T/C: 96.4%
[3]
  viability, T/C: 96.5%
[4]
  viability, T/C: 125%
[5]
  viability, T/C: 83.7%
[6]
  viability, T/C: 30.8%
[7]
  viability, T/C: 108%
[8]
  viability, T/C: 102%
[9]
  viability, T/C: 97.2%
[10]
  viability, T/C: 104%
[11]
  viability, T/C: 88%
[12]
  viability, T/C: 29.2%
[13]
  viability, T/C: 88%
[14]
  viability, T/C: 98%
[15]
  viability, T/C: 96.1%
[16]
  viability, T/C: 95.6%
[17]
  viability, T/C: 89.2%
[18]
  viability, T/C: 23%
[19]
  viability, T/C: 74.3%
[20]
  viability, T/C: 68.4%
[21]
  viability, T/C: 61.6%
[22]
  viability, T/C: 59.1%
[23]
  viability, T/C: 37.4%
[24]
  viability, T/C: 8.34%
[25]
  viability, T/C: 6.03%
[26]
  viability, T/C: 7.36%
[27]
  viability, T/C: 2.92%
[28]
  viability, T/C: 6.25%
[29]
  viability, T/C: 8.08%
[30]
  viability, T/C: 1.1%
[31]
  viability, T/C: 1.82%
[32]
  viability, T/C: 2.1%
[33]
  viability, T/C: 2.49%
[34]
  viability, T/C: 1.79%
[35]
  viability, T/C: 2.05%
[36]
  viability, T/C: 1.03%
